Tested on: KB
Assay: Cytotoxicity against human KB cells after 24 hrs by MTT assay
Type: functional, cell-based

Which IC50 does the source give for `CC1=C[C@H]2OC(=O)[C@@]3(C)CCC[C@@](C)([C@@H]23)[C@H]1CCC1=CCOC1=O` [HYPOPURIN D] here?
The IC50 was greater than 100 µM.

How did the IC50 turn out when `CC1=C[C@H]2OC(=O)[C@@]3(C)CCC[C@@](C)([C@@H]23)[C@H]1CC(=O)c1ccoc1` [HYPOPURIN A] was run?
Its IC50 is 9.4 µM.

With `CC1=C[C@H]2OC3OC(=O)[C@@]4(C)CCC[C@@]3([C@@H]24)[C@H]1CC(=O)c1ccoc1` [HYPOPURIN B] as the compound, how does the IC50 read?
The IC50 was greater than 100 µM.

For `C[C@@]12C=C[C@@H]3[C@]4(CCC[C@]3(C)C(=O)OC4O1)[C@H]2CC(=O)c1ccoc1` (some centres undefined) [HYPOPURIN C], which IC50 is on record?
Its IC50 is greater than 100 µM.
